Converted amounts (≈) assume the structure as drawn. Where two headings read alike, the source gives them in different places.
What was measured:
MRSA USA300 = assay: MIC against MRSA USA300 with and without 4% human serum albumin; format: cell-based, Staphylococcus aureus; conditions: Staphylococcus aureus, read-out: MIC against MRSA USA300
How it was run: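 MIC measured in tryptic soy broth spiked with 4% HSA and without it, using CLSI broth microdilution on MRSA USA300. Value reported is the lowest concentration preventing bacterial growth.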

[1] = system: vancomycin resistant enterococci (VRE) E. faecium; assay: Broth microdilution MIC/MBC, VRE E. faecium; format: cell-based; conditions: for MIC: read-out: MIC
Pseudomonas aeruginosa = assay: MIC with/without PMBN, Pseudomonas aeruginosa; format: cell-based
How it was run: (§1)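 Read-out is the MIC, determined with sub-inhibitory colistin or polymixin B nonapeptide co-applied to permeabilize the outer membrane of Gram-negative bacteria.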

P. aeruginosa = assay: Broth microdilution MIC, P. aeruginosa; format: cell-based; conditions: Pseudomonas aeruginosa
K. pneumoniae = assay: Broth microdilution MIC, K. pneumoniae; format: cell-based
Klebsiella pneumoniae = assay: MIC with/without PMBN, Klebsiella pneumoniae; format: cell-based
How it was run: as §1

[2] = system: methicillin-resistant Staphylococcus aureus (MRSA); assay: Broth microdilution MIC/MBC, MRSA; format: cell-based
[3] = system: vancomycin resistant enterococci (VRE) E. faecalis; assay: Broth microdilution MIC/MBC, VRE E. faecalis; format: cell-based; conditions: for MIC: read-out: MIC
Acinetobacter baumannii = assay: MIC with/without sub-MIC colistin, Acinetobacter baumannii; format: cell-based
How it was run: as §1

Bacillus Strains = assay: Broth microdilution MIC50/MIC90 and MIC range, Bacillus strains panel; format: cell-based, Bacillus spp.; conditions: 10 Bacillus strains
Source text: The broth microdilution technique was used, followed by subculturing on agar plates that were rhodanine—free. […] The MICs reported represent the lowest concentration of each compound necessary to inhibit bacterial growth and the MBCs represent the lowest concentration required to reduce the initial bacterial inoculum by ≥ 99.9%.

Candida albicans = assay: MIC against Candida albicans; format: cell-based; conditions: table prints none, read-out: MIC
Clostridium difficile = assay: MIC against Clostridium difficile, anaerobic broth dilution; format: cell-based; conditions: Clostridioides difficile
How it was run: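 Clinical C. difficile isolates grown anaerobically 48 h at 37 °C, suspended to 0.5 McFarland and diluted 1:300 in pre-reduced supplemented Brain Heart Infusion broth. Compounds serially diluted; plates incubated anaerobically at 37 °C for 48 h. MIC = lowest concentration with no visible growth.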

[4] = E. faecium HM 968 Strain ERV102
[5] = E. faecium NR31914 Strain E0120
[6] = E. faecium Patient #1–1 NR-31903
[7] = E. faecalis NR31972 Strain SF 28073

SMILES: O=C(O)[C@H](Cc1ccccc1)N1C(=O)/C(=C/c2cccc(Cc3ccc(Cl)c(Cl)c3)c2)SC1=S [Rh 3]
- MIC (MRSA USA300; 24 h, Media TSB + 4% HSA): > 64 µM
- MIC (MRSA USA300; Media TSB): 8 µM (≈ 4.23 µg/mL)
- MBC ([1]; E. faecium E417 HM-965): 64 µM (≈ 33.8 µg/mL)
- MIC ([1]; E. faecium E417 HM-965): 4 µM (≈ 2.11 µg/mL)
- MBC ([1]; E. faecium E1071 NR-28978): > 64 µM
- MIC ([1]; E. faecium E1071 NR-28978): 8 µM (≈ 4.23 µg/mL)
- MBC [1, 4]: 64 µM (≈ 33.8 µg/mL)
- MIC [1, 4]: 4 µM (≈ 2.11 µg/mL)
- MBC [1, 5]: 64 µM (≈ 33.8 µg/mL)
- MIC [1, 5]: 8 µM (≈ 4.23 µg/mL)
- MBC [1, 6]: 64 µM (≈ 33.8 µg/mL)
- MIC [1, 6]: 4 µM (≈ 2.11 µg/mL)
- MIC (Pseudomonas aeruginosa; Pseudomonas aeruginosa ATCC 9721, PMBN (+) 4 μg/mL, read-out: MIC): >64 µM
- MIC (Pseudomonas aeruginosa; Pseudomonas aeruginosa, ATCC9721): > 128 µM
- MIC (P. aeruginosa; ATCC9721): > 128 µM
- MIC (P. aeruginosa; ATCC15442): > 128 µM
- MIC (K. pneumoniae; K. pneumoniae NR-15417): >128 µM
- MIC (K. pneumoniae; Klebsiella pneumoniae): > 128 µM
- MIC (Klebsiella pneumoniae; Klebsiella pneumoniae ATCC BAA 1706, PMBN (+) 4 μg/mL): >64 µM
- MIC (Klebsiella pneumoniae; Klebsiella pneumoniae ATCC BAA 2146, PMBN (+) 4 μg/mL): >64 µM
- MIC (Klebsiella pneumoniae; Klebsiella pneumoniae, BAA1706): > 128 µM
- MIC (Klebsiella pneumoniae; Klebsiella pneumoniae, BAA2146): > 128 µM
- MIC50 ([2]; 11 MRSA strains): 8 µM (≈ 4.23 µg/mL)
- MIC90 ([2]; 11 MRSA strains): 16 µM (≈ 8.46 µg/mL)
- MBC ([2]; MRSA NRS 1): 8 µM (≈ 4.23 µg/mL)
- MIC ([2]; MRSA NRS 1): 8 µM (≈ 4.23 µg/mL)
- MBC ([2]; MRSA NRS 19): 8 µM (≈ 4.23 µg/mL)
- MIC ([2]; MRSA NRS 19): 8 µM (≈ 4.23 µg/mL)
- MBC ([2]; MRSA NRS 37): 16 µM (≈ 8.46 µg/mL)
- MIC ([2]; MRSA NRS 37): 8 µM (≈ 4.23 µg/mL)
- MBC ([2]; MRSA NRS 107): 32 µM (≈ 16.9 µg/mL)
- MIC ([2]; MRSA NRS 107): 8 µM (≈ 4.23 µg/mL)
- MBC ([2]; MRSA NRS 119): 8 µM (≈ 4.23 µg/mL)
- MIC ([2]; MRSA NRS 119): 8 µM (≈ 4.23 µg/mL)
- MBC ([2]; MRSA NRS 382): 32 µM (≈ 16.9 µg/mL)
- MIC ([2]; MRSA NRS 382): 16 µM (≈ 8.46 µg/mL)
- MBC ([2]; MRSA NRS 383): 8 µM (≈ 4.23 µg/mL)
- MIC ([2]; MRSA NRS 383): 8 µM (≈ 4.23 µg/mL)
- MBC ([2]; MRSA NRS 384): 16 µM (≈ 8.46 µg/mL)
- MIC ([2]; MRSA NRS 384): 16 µM (≈ 8.46 µg/mL)
- MBC ([2]; MRSA NRS 385): 16 µM (≈ 8.46 µg/mL)
- MIC ([2]; MRSA NRS 385): 16 µM (≈ 8.46 µg/mL)
- MBC ([2]; MRSA NRS 386): 32 µM (≈ 16.9 µg/mL)
- MIC ([2]; MRSA NRS 386): 8 µM (≈ 4.23 µg/mL)
- MBC ([2]; MRSA NRS 387): 32 µM (≈ 16.9 µg/mL)
- MIC ([2]; MRSA NRS 387): 16 µM (≈ 8.46 µg/mL)
- MBC ([3]; E. faecalis ERV103 HM-934): 8 µM (≈ 4.23 µg/mL)
- MIC ([3]; E. faecalis ERV103 HM-934): 4 µM (≈ 2.11 µg/mL)
- MBC [3, 7]: 64 µM (≈ 33.8 µg/mL)
- MIC [3, 7]: 4 µM (≈ 2.11 µg/mL)
- MBC ([3]; E. faecalis R712 HM-335): 4 µM (≈ 2.11 µg/mL)
- MIC ([3]; E. faecalis R712 HM-335): 4 µM (≈ 2.11 µg/mL)
- MBC ([3]; E. faecalis S613 HM-334): 8 µM (≈ 4.23 µg/mL)
- MIC ([3]; E. faecalis S613 HM-334): 4 µM (≈ 2.11 µg/mL)
- MBC ([3]; E. faecalis TX0104 HM-201): 8 µM (≈ 4.23 µg/mL)
- MIC ([3]; E. faecalis TX0104 HM-201): 4 µM (≈ 2.11 µg/mL)
- MIC (Acinetobacter baumannii; Acinetobacter baumannii ATCC BAA747, colistin (+) […], read-out: MIC): >64 µM
- MIC (Acinetobacter baumannii; Acinetobacter baumannii ATCC BAA19606, colistin (+) […], read-out: MIC): >64 µM
- MIC (Acinetobacter baumannii; Acinetobacter baumannii, ATCCBAA747): > 128 µM
- MIC (Acinetobacter baumannii; Acinetobacter baumannii, ATCCBAA19606): > 128 µM
- MIC50 (Bacillus Strains): 4 µM (≈ 2.11 µg/mL)
- MIC90 (Bacillus Strains): 4 µM (≈ 2.11 µg/mL)
- MIC (Candida albicans; ATCC10231, C. albicans ATCC 10231, unit from abstract): > 64 µM
- MIC (Candida albicans; C. albicans NR 29434, unit from abstract): > 64 µM
- MIC (Candida albicans; C. albicans NR 29435, unit from abstract): > 64 µM
- MIC (Candida albicans; C. albicans NR29437, unit from abstract): > 64 µM
- MIC (Candida albicans; C. albicans NR29438, unit from abstract): > 64 µM
- MIC (Candida albicans; C. albicans NR 29446, unit from abstract): 64 µM (≈ 33.8 µg/mL)
- MIC (Candida albicans; C. albicans NR 29448, unit from abstract): > 64 µM
- MIC (Candida albicans; C. albicans NR 29449, unit from abstract): > 64 µM
- MIC (Candida albicans; C. albicans NR 29453, unit from abstract): > 64 µM
- MIC (Candida albicans; C. albicans NR 294436, unit from abstract): > 64 µM
- MIC (Clostridium difficile; C. difficile HM-88): 2 µM (≈ 1.06 µg/mL)
- MIC (Clostridium difficile; C. difficile HM-745): 1 µM (≈ 0.528 µg/mL)
- MIC (Clostridium difficile; C. difficile HM-746): 2 µM (≈ 1.06 µg/mL)
- MIC (Clostridium difficile; C. difficile Isolate-1 NR-13427): 2 µM (≈ 1.06 µg/mL)
- MIC (Clostridium difficile; C. difficile Toxigenic Strain P8 NR-32888): 4 µM (≈ 2.11 µg/mL)

Reference: PMC5053523, “In Vitro Antibacterial Activity of Rhodanine Derivatives against Pathogenic Clinical Isolates” (PLoS ONE, 2016)
